This note sets out measurements from US4367339A, “Substituted N-nitroaniline compounds and inorganic and organic salts thereof useful for enhancing auxiliary branching, canopy flowering and crop yield of plant and as lodging inhibitors therefor” (priority 1980, dated 1983).

The subject of the data set is barley (Hordeum vulgare, var. Georgie). Description: Antilodging effects on barley. The format is in vivo. Also on record: key to Tiller formation / Stem stiffness: 5 = no increase over controls, 3 = moderate significant increase. The note with it: for Stem stiffness / Tiller formation: control 5; for Weight Dry: control 5.2; for Weight Fresh: control 49.1; for Height: control 53.1; for Phytotoxicity: three weeks after spraying. As to the method: In this experiment the procedure of Example 7 is repeated excepting that the crop used was barley (Hordeum vulgare, var. Georgie; European lodging prone variety). The plants are treated at the 3-4 leaf stage. Plants are watered prior to treatment and then sprayed to provide the kg/ha rate of test compound desired. After spraying the plants are placed on greenhouse benches and watered and fertilized in accordance with normal greenhouse procedures.
Three weeks after spraying the plants are measured and harvested. All treatments are replicated six times and companions are made against untreated controls.
The following rating system is used:
5=No increase over controls
3=Moderate, significant increase over controls.

`Brn1c(-c2ccccc2)cc(-c2ccccc2)[n+]1Br.O=[N+]([O-])[N-]c1c(Br)cccc1Br` [1,2-Dibromo-3,5-diphenylpyrazolium salt with 2,6-dibromo-N--aci-nitroaniline]: under “rate 0.25 kg/ha”, the Stem stiffness came to 4, the Tiller formation is on record as 5 (No increase over controls), the “Weight Dry” value was 6.9 g and the “Weight Fresh” value is 59.2 g. Also, where the note is “rate 0.25 kg/ha”, the Height is 58.2 cm and the Phytotoxicity was 5 (No increase over controls). Where the note is “rate 0.5 kg/ha”, the Stem stiffness is listed as 4, the Tiller formation is 5 (No increase over controls), the “Weight Dry” value came to 6.7 g and the “Weight Fresh” value is 60.7 g. For the same compound, where the note is “rate 0.5 kg/ha”, the Height was found to be 53.3 cm and the Phytotoxicity is 5 (No increase over controls). In addition, for the setting “rate 1.0 kg/ha”, the Stem stiffness was 3 (Moderate, significant increase over controls.); the Tiller formation is 3 (Moderate, significant increase over controls.); the “Weight Dry” value was found to be 5.9 g; the “Weight Fresh” value is reported as 60.4 g. Moreover, where the note is “rate 1.0 kg/ha”, the Height came out at 52.3 cm and the Phytotoxicity is 5 (No increase over controls).
`Cn1c(-c2ccccc2)cc(-c2ccccc2)[n+]1C.O=[N+]([O-])[N-]c1cccc(Cl)c1Cl` [1,2-Dimethyl-3,5-diphenylpyrazolium salt with 2,3-dichloro-N--aci-nitroaniline]: for the setting “rate 0.25 kg/ha”, the Stem stiffness is given as 5 (No increase over controls), the Tiller formation is recorded as 5 (No increase over controls), the “Weight Fresh” value stood at 51.2 g and the Height was 56.3 cm. The Phytotoxicity (rate 0.25 kg/ha) was 5 (No increase over controls). Moreover, under “rate 0.5 kg/ha”, the Stem stiffness is 5 (No increase over controls), the Tiller formation was 5 (No increase over controls), the “Weight Fresh” value came out at 52.6 g and the Height amounted to 54.7 cm. Moreover, the Phytotoxicity (rate 0.5 kg/ha) was 5 (No increase over controls). Where the note is “rate 1.0 kg/ha”, the Stem stiffness is on record as 5 (No increase over controls), the Tiller formation is 5 (No increase over controls), the “Weight Dry” value was 6.0 g and the “Weight Fresh” value is listed as 57.3 g. Further, for the setting “rate 1.0 kg/ha”, the Height turned out to be 55.5 cm and the Phytotoxicity is recorded as 5 (No increase over controls).
For `Cn1c(-c2ccccc2)cc(-c2ccccc2)[n+]1C.O=[N+]([O-])[N-]c1ccccc1Br` [1,2-Dimethyl-3,5-diphenylpyrazolium salt with 2-Bromo-N--aci-nitroaniline], where the note is “rate 0.25 kg/ha”, the Stem stiffness amounted to 4, the Tiller formation is recorded as 4, the “Weight Fresh” value turned out to be 51.0 g and the Height was determined as 52.5 cm. The Phytotoxicity (rate 0.25 kg/ha) is reported as 5 (No increase over controls). For the setting “rate 0.5 kg/ha”, the Stem stiffness was 5 (No increase over controls), the Tiller formation was 5 (No increase over controls), the “Weight Fresh” value is 53.5 g and the Height is on record as 50.6 cm. Moreover, the Phytotoxicity (rate 0.5 kg/ha) is 5 (No increase over controls). In addition, under “rate 1.0 kg/ha”, the Stem stiffness is reported as 5 (No increase over controls), the Tiller formation is reported as 5 (No increase over controls), the “Weight Fresh” value is given as 47.4 g and the Height is 50.0 cm. For the same compound, the Phytotoxicity (rate 1.0 kg/ha) is 5 (No increase over controls).
With `O=[N+]([O-])Nc1ccc(Br)cc1Br` [2,4-Dibromo-N--nitroaniline], under “rate 0.25 kg/ha”, the Stem stiffness is given as 3 (Moderate, significant increase over controls.); the Tiller formation is recorded as 4; the “Weight Dry” value was determined as 7.8 g; the “Weight Fresh” value was determined as 63.5 g. For the setting “rate 0.25 kg/ha”, the Height was 54.7 cm and the Phytotoxicity is 5 (No increase over controls). Under “rate 0.5 kg/ha”, the Stem stiffness was 5 (No increase over controls), the Tiller formation is 5 (No increase over controls), the “Weight Dry” value was found to be 6.7 g and the “Weight Fresh” value is given as 56.3 g. Further, under “rate 0.5 kg/ha”, the Height is reported as 56.0 cm and the Phytotoxicity was 5 (No increase over controls). Moreover, under “rate 1.0 kg/ha”, the Stem stiffness was 5 (No increase over controls), the Tiller formation is on record as 5 (No increase over controls), the “Weight Fresh” value was determined as 46.4 g and the Height worked out at 53.3 cm. Besides, the Phytotoxicity (rate 1.0 kg/ha) is 5 (No increase over controls).
As to `O=[N+]([O-])N(F)c1c(Br)cccc1Br` [2,6-Dibromo-N--fluoro-N--nitroaniline], where the note is “rate 0.25 kg/ha”, the Stem stiffness stood at 4, the Tiller formation is listed as 4, the “Weight Dry” value was found to be 6.0 g and the “Weight Fresh” value is 57.8 g. Where the note is “rate 0.25 kg/ha”, the Height came out at 52.0 cm and the Phytotoxicity was 5 (No increase over controls). For the same compound, under “rate 0.5 kg/ha”, the Stem stiffness was 5 (No increase over controls), the Tiller formation is on record as 5 (No increase over controls), the “Weight Fresh” value was determined as 52.6 g and the Height worked out at 51.0 cm. Also, where the note is “rate 0.5 kg/ha”, the Phytotoxicity is 5 (No increase over controls). Also, for the setting “rate 1.0 kg/ha”, the Stem stiffness was 5 (No increase over controls), the Tiller formation worked out at 4, the “Weight Fresh” value was determined as 49.2 g and the Height was 45.2 cm. Moreover, under “rate 1.0 kg/ha”, the Phytotoxicity is 5 (No increase over controls).
As for `O=[N+]([O-])Nc1c(Br)cccc1Br` [2,6-Dibromo-N--nitroaniline], where the note is “rate 0.25 kg/ha”, the Stem stiffness was 4, the Tiller formation is listed as 4, the “Weight Dry” value came to 6.2 g and the “Weight Fresh” value worked out at 58.3 g. For the same compound, where the note is “rate 0.25 kg/ha”, the Height turned out to be 50.5 cm and the Phytotoxicity is recorded as 5 (No increase over controls). Where the note is “rate 0.5 kg/ha”, the Stem stiffness came to 4; the Tiller formation is recorded as 3 (Moderate, significant increase over controls.); the “Weight Dry” value is on record as 6.9 g; the “Weight Fresh” value worked out at 67.5 g. Also, where the note is “rate 0.5 kg/ha”, the Height was found to be 53.0 cm and the Phytotoxicity was 5 (No increase over controls). For the same compound, where the note is “rate 1.0 kg/ha”, the Stem stiffness is reported as 4; the Tiller formation is reported as 3 (Moderate, significant increase over controls.); the “Weight Dry” value was 5.4 g; the “Weight Fresh” value is reported as 55.8 g. Under “rate 1.0 kg/ha”, the Height is listed as 48.3 cm and the Phytotoxicity was 5 (No increase over controls).
